The source of these data is patent US11655216B2 (priority 2016, dated 2023).

Assay [1] deals with T1, glutathione-S-transferase (GST) tagged LXRalpha LBD (ligand binding domain) (Homo sapiens, UniProt Q13133).
T1 construct: purchased Invitrogen pv4655
T1 sequence (Q13133 209-447 limits assumed): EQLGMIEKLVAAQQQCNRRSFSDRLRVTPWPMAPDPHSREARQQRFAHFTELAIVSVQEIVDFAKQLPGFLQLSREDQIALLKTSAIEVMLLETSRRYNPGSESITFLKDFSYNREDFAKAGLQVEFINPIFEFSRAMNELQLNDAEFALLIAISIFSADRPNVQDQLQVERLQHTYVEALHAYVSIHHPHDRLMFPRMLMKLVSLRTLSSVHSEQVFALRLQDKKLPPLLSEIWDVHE
Put plainly: biochemical. The settings on record: for EC50: LXR alpha IP; for EC50 / LXR alpha IP: potency (Inflection Point), compound-induced co-activator recruitment, TR-FRET; for Emax: read-out: LXR alpha actiivty at max dose, efficacy (% Emax) in relation to reference dual agonist T0901317. Summed up:
(§1)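 Coactivator recruitment format: receptor LBD exposed to compounds, detection via Tb-antibody/fluorescein-peptide pair, room-temperature incubation, TR-FRET signal on a filter instrument.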

Assay [2] has as its target T2, glutathione-S-transferase (GST) tagged LXRbeta LBD (ligand binding domain) (Homo sapiens, UniProt P55055).
T2 construct: purchased Invitrogen pv4658
T2 sequence (P55055 222-460 limits assumed): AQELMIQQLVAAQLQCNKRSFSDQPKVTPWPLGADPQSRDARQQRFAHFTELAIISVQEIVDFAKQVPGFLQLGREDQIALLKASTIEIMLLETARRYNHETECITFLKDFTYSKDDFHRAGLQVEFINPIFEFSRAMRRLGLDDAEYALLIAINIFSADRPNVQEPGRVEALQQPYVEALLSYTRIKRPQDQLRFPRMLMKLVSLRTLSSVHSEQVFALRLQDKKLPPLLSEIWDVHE
Nature of the assay: LanthaScreen TR-FRET Liver X Receptor Coactivator Assay, LXR beta. The assay is classed as biochemical. The note with it: for EC50: LXR beta IP, potency (Inflection Point), compound-induced co-activator recruitment, TR-FRET; for Emax: read-out: LXR beta actiivty at max dose, efficacy (% Emax) in relation to reference dual agonist T0901317. The essentials:
as §1
(In general: In TR-FRET formats the signal depends on donor and acceptor labels being close together.)

Take `CN(C)C(=O)c1ccc(OCCCCC2CCN(C(=O)C(O)(c3cccnc3)C(F)(F)F)CC2)nc1Cl` (stereo not shown) [Example 6-2, 2-chloro-N,N-dimethyl-6-(4-(1-(3,3,3-trifluoro-2-hydroxy-2-(pyridin-3-yl)propanoyl)piperidin-4-yl)butoxy)nicotinamide]: in assay [1], the EC50 – broadly, the concentration needed to bring the measured effect to its halfway point – was found to be 1230 nM and the Emax (in general, the maximal effect, on the per cent scale that the assay sets) is 74%. For the same compound, in assay [2], the EC50 is 8 nM and the maximal response (Emax) was found to be 90%.

Consider `CN(C)C(=O)c1ccc(OCCCCC2CCN(S(=O)(=O)c3ccccc3C(F)(F)F)CC2)nc1Cl` [Example 7-1, 2-chloro-N,N-dimethyl-6-(4-(1-(2-(trifluoromethyl)phenylsulfonyl)piperidin-4-yl)butoxy)nicotinamide], for which, in assay [1], the response was half-maximal at 776 nM (EC50) and the Emax was 82%. In addition, in assay [2], the EC50 stood at 36 nM and the Emax came to 138%.

As to `CN(C)C(=O)c1ccc(OCCCCC2CCN(S(=O)(=O)c3c(Cl)cccc3Cl)CC2)nc1Cl` [Example 7-2, 2-chloro-6-(4-(1-(2,6-dichlorophenylsulfonyl)piperidin-4-yl)butoxy)-N,N-dimethylnicotinamide], in assay [1], a half-maximal effect (EC50) was put at 429 nM and the Emax was 80%. Also, in assay [2], the response was half-maximal at 23 nM (EC50) and the Emax came out at 122%.

Consider `CN(C)C(=O)c1ccc(OCCCCC2CCN(S(=O)(=O)c3ccccc3C#N)CC2)nc1Cl` [Example 7-3, 2-chloro-6-(4-(1-(2-cyanophenylsulfonyl)piperidin-4-yl)butoxy)-N,N-dimethylnicotinamide], for which, in assay [1], the EC50 is 2930 nM and the Emax is 57%. In assay [2], the EC50 turned out to be 112 nM and the Emax amounted to 120%.

Regarding `O=C(c1cscn1)N1CCC(CCCCOc2ccc(C(=O)N3CCCC3)c(Cl)c2)CC1` [Example 8-20, (2-chloro-4-(4-(1-(thiazole-4-carbonyl)piperidin-4-yl)butoxy)phenyl) (pyrrolidin-1-yl)methanone], in assay [1], the “LXR alpha IP” value is “No IP” and the Emax stood at 4%. In assay [2], the 50% effective concentration (EC50) is 4410 nM and the Emax was found to be 25%.

In the case of `CN(C)C(=O)c1ccc(OCCCCC2(C)CCN(C(=O)C3(c4ccccc4)CCCC3)CC2)cc1Cl` [Example 9-1, 2-chloro-N,N-dimethyl-4-(4-(4-methyl-1-(1-phenylcyclopentanecarbonyl)piperidin-4-yl)butoxy)benzamide], the half-maximal effective concentration (EC50) in assay [1] was 411 nM; in assay [2] it was 51 nM. Further, the Emax in assay [1] was 13%; in assay [2] it was 88%.

`CN(C)C(=O)c1ccc(OCCC2CC23CCN(C(=O)C(C)(C)c2ccccc2)CC3)nc1Cl` (stereo not shown) [Example 15-3, 2-chloro-N,N-dimethyl-6-(2-(6-(2-methyl-2-phenylpropanoyl)-6-azaspiro[2.5]octan-1-yl)ethoxy)nicotinamide]: in assay [1], a half-maximal effect (EC50) was put at 202 nM and the Emax was 67%. Moreover, in assay [2], the EC50 turned out to be 5 nM and the Emax worked out at 102%.

`CN(C)C(=O)c1ccc(OCC2CC3(CCN(C(=O)C(C)(C)c4ccccc4)CC3)C2)cc1Cl` [Example 33-2, 2-chloro-N,N-dimethyl-4-((7-(2-methyl-2-phenylpropanoyl)-7-azaspiro[3.5]nonan-2-yl)methoxy)benzamide]: in assay [1], the “LXR alpha IP” value was “No IP” and the maximum response (Emax) was determined as 8%. In assay [2], the EC50 came to 220 nM and the Emax stood at 60%.

For `CN(C)C(=O)c1ccc(OCCC2CC3(CCN(C(=O)C(C)(C)c4ccccc4)CC3)C2)cc1Cl` [Example 34-2, 2-chloro-N,N-dimethyl-4-(2-(7-(2-methyl-2-phenylpropanoyl)-7-azaspiro[3.5]nonan-2-yl)ethoxy)benzamide], the figures for the EC50 in assay [1] and in assay [2] were 268 nM and 26 nM, respectively. Moreover, the maximal response (Emax) in assay [1] worked out at 25%; in assay [2] it was 90%.

With `CC(C)(C(=O)N1CCC2(CC1)CC(CCOc1ccc(C(=O)N3CCCC3)c(Cl)c1)C2)c1ccccc1` [Example 34-3, 1-(2-(2-(3-chloro-4-(pyrrolidine-1-carbonyl)phenoxy)ethyl)-7-azaspiro[3.5]nonan-7-yl)-2-methyl-2-phenylpropan-1-one], in assay [1], the response was half-maximal at 292 nM (EC50) and the Emax was 13%. Also, in assay [2], the EC50 amounted to 70 nM and the Emax is 65%.
